This note sets out measurements from patent US12258327B2, “5-membered heteroaryl-containing aminopyridine compounds as EGFR inhibitors” (YUHAN CORPORATION, priority 2021, dated 2025).

Read-outs that look alike come from different tables or passages of the source. Where only a bound is given, the exact number is not on record here.

For one assay, the target named is EGFR del19/T790M/C797S (Homo sapiens, UniProt P00533, C797S/DEL746-750/T790M). The assay can be described thus: Biochemical EGFR kinase assay (Lance Ultra TR-FRET), triple mutant del19/T790M/C797S. The method in brief:
(§1)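 Kinase activity is measured by TR-FRET phosphopeptide detection. Compounds span 0.003 μM to 10 μM; the 1 h reaction at room temperature is quenched with EDTA, then labelled antibody (2 nM) is incubated 60 min before reading.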
For orientation: Time-resolved FRET reads energy transfer from a long-lived donor to a nearby acceptor.

The target in the next assay is EGFR wildtype (WT) (Homo sapiens, UniProt P00533). As to the kind of experiment: Biochemical EGFR kinase assay (Lance Ultra TR-FRET), wildtype. In outline: as §1
In a further assay the target is EGFR L858R/C797S (Homo sapiens, UniProt P00533, C797S/L858R). The assay can be described thus: Biochemical EGFR kinase assay (Lance Ultra TR-FRET), double mutant L858R/C797S. The method in brief: as §1
Another assay has as its target EGFR del19/C797S (Homo sapiens, UniProt P00533, C797S/DEL746-750). The assay can be described thus: Biochemical EGFR kinase assay (Lance Ultra TR-FRET), double mutant del19/C797S. In outline: as §1
A further assay addresses EGFR L858R/T790M/C797S (Homo sapiens, UniProt P00533, C797S/L858R/T790M). The assay can be described thus: Biochemical EGFR kinase assay (Lance Ultra TR-FRET), triple mutant L858R/T790M/C797S. In outline: as §1
Where [1] appears, read: Km ATP, read-out: IC50 del19/T790M/C797S (nM) Km ATP.
Where [2] appears, read: Km ATP, read-out: IC50 WT (nM) Km ATP.
Where [3] appears, read: Km ATP, read-out: IC50 L858R/C797S (nM) Km ATP.
Where [4] appears, read: Km ATP, read-out: IC50 del19/C797S (nM) Km ATP.
Where [5] appears, read: Km ATP, read-out: IC50 L858R/T790M/C797S (nM) Km ATP.
Setting [6] is: IC50 del19/T790M/C797S (nM) 100 μM ATP, 100 μM ATP.
The mark [7] stands for this setting: IC50 WT (nM) 100 μM ATP, 100 μM ATP.
[8] abbreviates: IC50 L858R/C797S (nM) 100 μM ATP, 100 μM ATP.
Where [9] appears, read: IC50 del19/C797S (nM) 100 μM ATP, 100 μM ATP.
Where [10] appears, read: IC50 L858R/T790M/C797S (nM) 100 μM ATP, 100 μM ATP.

EGFR del19/C797S, sequence (P00533 with tags, fused parts or gaps DEL746-750/C797S): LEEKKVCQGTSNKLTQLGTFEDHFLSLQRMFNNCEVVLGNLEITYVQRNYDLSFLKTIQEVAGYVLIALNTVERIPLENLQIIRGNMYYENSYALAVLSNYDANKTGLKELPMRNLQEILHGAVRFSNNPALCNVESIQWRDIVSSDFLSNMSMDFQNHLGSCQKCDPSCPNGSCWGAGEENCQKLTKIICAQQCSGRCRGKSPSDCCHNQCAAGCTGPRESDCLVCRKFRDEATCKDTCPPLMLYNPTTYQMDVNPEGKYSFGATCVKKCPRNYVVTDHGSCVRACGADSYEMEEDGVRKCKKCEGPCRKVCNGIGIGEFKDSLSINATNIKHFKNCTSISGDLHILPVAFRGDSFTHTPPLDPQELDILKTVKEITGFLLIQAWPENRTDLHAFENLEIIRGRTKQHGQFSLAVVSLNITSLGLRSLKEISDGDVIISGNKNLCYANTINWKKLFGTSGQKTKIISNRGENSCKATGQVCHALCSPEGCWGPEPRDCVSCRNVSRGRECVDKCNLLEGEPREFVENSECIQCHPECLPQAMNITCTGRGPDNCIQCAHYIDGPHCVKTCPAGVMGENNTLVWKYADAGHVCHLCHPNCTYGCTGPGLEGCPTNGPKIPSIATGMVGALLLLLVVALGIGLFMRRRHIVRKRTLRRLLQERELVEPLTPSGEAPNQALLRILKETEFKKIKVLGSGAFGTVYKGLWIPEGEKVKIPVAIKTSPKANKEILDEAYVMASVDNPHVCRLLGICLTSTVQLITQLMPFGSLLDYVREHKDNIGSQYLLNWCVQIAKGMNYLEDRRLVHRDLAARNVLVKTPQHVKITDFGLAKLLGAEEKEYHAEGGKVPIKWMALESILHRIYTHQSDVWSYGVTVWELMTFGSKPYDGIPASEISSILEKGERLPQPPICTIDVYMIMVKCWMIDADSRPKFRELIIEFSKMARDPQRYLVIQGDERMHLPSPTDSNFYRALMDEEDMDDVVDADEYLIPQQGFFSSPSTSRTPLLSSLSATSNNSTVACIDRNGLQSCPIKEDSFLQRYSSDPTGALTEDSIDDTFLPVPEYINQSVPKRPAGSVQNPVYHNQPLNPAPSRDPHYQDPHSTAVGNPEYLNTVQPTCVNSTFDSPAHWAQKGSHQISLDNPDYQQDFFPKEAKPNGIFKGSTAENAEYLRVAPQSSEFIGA
EGFR L858R/C797S, sequence (P00533 25-1210 C797S/L858R): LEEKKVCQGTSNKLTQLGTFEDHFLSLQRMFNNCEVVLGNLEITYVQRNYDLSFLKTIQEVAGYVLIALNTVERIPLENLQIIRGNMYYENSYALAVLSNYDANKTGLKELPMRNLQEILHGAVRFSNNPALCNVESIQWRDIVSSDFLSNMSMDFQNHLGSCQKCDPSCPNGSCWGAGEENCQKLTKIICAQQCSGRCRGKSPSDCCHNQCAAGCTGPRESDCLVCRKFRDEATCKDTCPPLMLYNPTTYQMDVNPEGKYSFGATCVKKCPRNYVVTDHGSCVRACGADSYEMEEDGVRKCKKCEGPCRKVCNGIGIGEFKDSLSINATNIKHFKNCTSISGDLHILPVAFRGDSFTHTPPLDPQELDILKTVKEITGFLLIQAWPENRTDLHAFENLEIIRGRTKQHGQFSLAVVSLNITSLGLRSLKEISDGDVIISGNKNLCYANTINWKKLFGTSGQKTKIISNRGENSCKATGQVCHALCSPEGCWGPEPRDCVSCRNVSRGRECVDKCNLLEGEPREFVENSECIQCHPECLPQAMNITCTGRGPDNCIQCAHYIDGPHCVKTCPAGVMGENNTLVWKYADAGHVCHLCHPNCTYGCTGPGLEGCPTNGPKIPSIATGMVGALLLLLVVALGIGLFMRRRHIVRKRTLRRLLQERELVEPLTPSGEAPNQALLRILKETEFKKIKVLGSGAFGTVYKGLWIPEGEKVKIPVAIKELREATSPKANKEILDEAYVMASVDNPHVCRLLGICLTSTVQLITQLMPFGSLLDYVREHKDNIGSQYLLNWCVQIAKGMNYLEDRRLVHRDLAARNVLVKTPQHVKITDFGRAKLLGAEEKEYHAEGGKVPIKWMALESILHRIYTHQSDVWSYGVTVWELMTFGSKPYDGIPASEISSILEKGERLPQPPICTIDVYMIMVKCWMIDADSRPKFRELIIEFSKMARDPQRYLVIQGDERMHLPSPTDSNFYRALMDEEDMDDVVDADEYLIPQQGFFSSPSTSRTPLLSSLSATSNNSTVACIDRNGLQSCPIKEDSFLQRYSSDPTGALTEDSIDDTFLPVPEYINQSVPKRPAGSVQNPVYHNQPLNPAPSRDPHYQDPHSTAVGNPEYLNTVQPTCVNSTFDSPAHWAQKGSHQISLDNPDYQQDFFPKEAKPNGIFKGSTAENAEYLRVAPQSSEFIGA
EGFR L858R/T790M/C797S, sequence (P00533 25-1210 T790M/C797S/L858R): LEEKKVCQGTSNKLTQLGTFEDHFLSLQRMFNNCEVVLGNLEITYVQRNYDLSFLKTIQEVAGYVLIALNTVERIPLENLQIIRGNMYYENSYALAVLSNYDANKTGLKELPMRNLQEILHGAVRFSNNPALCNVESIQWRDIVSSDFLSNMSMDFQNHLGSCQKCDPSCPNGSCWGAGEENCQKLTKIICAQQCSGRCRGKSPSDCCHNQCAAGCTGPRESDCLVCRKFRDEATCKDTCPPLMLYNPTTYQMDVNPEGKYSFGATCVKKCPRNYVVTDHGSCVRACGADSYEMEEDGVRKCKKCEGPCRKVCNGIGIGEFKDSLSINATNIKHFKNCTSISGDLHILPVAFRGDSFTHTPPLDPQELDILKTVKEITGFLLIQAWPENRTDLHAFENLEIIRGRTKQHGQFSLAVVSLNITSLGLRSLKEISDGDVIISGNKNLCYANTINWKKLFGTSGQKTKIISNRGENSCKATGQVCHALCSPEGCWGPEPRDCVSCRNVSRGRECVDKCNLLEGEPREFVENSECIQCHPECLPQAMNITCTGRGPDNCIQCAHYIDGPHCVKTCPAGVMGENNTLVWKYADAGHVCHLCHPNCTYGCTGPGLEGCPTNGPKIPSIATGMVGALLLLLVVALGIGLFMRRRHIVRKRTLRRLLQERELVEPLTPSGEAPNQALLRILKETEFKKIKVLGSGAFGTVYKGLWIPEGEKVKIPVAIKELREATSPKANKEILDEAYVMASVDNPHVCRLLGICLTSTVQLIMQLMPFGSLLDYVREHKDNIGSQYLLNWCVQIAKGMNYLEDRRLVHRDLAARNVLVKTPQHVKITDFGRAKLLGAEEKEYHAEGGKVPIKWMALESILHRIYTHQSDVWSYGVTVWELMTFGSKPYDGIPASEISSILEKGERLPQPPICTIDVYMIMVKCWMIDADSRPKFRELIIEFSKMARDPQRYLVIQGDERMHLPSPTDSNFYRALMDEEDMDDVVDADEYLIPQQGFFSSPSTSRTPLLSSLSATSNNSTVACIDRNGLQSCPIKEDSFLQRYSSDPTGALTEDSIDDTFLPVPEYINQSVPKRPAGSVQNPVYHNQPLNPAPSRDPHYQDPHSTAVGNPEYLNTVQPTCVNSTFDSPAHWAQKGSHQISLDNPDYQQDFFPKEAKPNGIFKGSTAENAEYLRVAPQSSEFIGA
EGFR wildtype (WT), sequence (P00533 25-1210): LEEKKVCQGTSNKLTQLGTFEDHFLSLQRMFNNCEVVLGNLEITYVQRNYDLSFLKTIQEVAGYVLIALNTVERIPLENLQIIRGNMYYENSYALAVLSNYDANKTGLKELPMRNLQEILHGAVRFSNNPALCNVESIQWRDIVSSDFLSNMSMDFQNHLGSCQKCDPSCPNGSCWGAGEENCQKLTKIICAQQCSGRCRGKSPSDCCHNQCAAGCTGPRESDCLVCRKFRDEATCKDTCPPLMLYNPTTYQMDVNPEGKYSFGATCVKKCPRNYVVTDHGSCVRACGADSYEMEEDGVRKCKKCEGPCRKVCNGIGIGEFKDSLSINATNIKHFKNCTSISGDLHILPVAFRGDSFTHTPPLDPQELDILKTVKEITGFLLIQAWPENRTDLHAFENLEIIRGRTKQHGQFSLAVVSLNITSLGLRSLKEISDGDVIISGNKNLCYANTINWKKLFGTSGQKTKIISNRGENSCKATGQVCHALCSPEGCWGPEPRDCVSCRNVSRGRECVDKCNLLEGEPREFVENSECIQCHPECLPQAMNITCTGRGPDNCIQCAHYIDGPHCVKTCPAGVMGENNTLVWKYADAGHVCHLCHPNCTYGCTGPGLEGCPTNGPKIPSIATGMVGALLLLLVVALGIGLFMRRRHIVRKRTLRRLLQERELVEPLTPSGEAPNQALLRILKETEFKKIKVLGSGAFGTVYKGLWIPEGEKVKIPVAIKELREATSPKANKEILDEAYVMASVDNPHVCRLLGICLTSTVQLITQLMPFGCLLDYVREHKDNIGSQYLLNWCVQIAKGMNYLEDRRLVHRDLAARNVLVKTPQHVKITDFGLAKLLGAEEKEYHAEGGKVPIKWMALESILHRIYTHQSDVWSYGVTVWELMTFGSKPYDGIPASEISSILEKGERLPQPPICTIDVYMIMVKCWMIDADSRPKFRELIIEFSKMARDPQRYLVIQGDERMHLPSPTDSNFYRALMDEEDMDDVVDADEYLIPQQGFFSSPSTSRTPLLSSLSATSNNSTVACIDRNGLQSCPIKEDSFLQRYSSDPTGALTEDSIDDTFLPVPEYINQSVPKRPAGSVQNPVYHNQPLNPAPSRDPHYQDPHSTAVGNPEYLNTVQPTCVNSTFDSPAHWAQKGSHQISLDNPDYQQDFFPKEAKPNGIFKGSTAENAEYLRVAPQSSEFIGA

Turning to `OC1CCN(Nc2cc(Nc3ccnc(-c4cnn(CC(F)F)c4)n3)ncc2-c2ccn(C(F)F)n2)CC1` [Example 162, 1-((2-((2-(1-(2,2-Difluoroethyl)-1H-pyrazol-4-yl)pyrimidin-4-yl)amino)-5-(1-(difluoromethyl)-1H-pyrazol-3-yl)pyridin-4-yl)amino)piperidin-4-ol], the IC50 on EGFR del19/T790M/C797S (setting [1]) stood at 0.9 nM; at EGFR wildtype (WT) (setting [2]), 271 nM; on EGFR L858R/C797S (setting [3]), 275 nM; on EGFR del19/C797S (setting [4]) it was 33.4 nM; on EGFR L858R/T790M/C797S (setting [5]) it was 0.2 nM.
`CN[C@H]1CC[C@@H](Nc2cc(Nc3ccnc(-c4cnn(S(=O)(=O)C5CC5)c4)n3)ncc2-c2ccn(C)n2)CC1` [Example 88, N^2-(2-(1-(Cyclopropylsulfonyl)-1H-pyrazol-4-yl)pyrimidin-4-yl)-5-(1-methyl-1H-pyrazol-3-yl)-N^4-((1s,4s)-4-(methylamino)cyclohexyl)pyridine-2,4-diamine]: the IC50 amounted to 0.2 nM on EGFR del19/T790M/C797S (setting [1]); 0.3 nM on EGFR del19/T790M/C797S (read-out: IC50 del19/T790M/C797S (nM) 100 μM ATP, 100 μM ATP); 3.2 nM on EGFR wildtype (WT) (setting [2]); 1980 nM at EGFR wildtype (WT) (read-out: IC50 WT (nM) 100 μM ATP, 100 μM ATP); 0.3 nM on EGFR L858R/C797S (setting [3]); 3.1 nM at EGFR L858R/C797S (read-out: IC50 L858R/C797S (nM) 100 μM ATP, 100 μM ATP). The IC50 is 0.5 nM at EGFR del19/C797S (setting [4]); 1 nM on EGFR del19/C797S (read-out: IC50 del19/C797S (nM) 100 μM ATP, 100 μM ATP); 0.1 nM at EGFR L858R/T790M/C797S (setting [5]); 0.3 nM at EGFR L858R/T790M/C797S (read-out: IC50 L858R/T790M/C797S (nM) 100 μM ATP, 100 μM ATP).
`C[C@]1(O)CC[C@@H](Nc2cc(Nc3ccnc(-c4ccc(F)nc4F)n3)ncc2-c2ccn(C(F)F)n2)CC1` [Example 170, (1s,4s)-4-((5-(1-(Difluoromethyl)-1H-pyrazol-3-yl)-2-((2-(2,6-difluoropyridin-3-yl)pyrimidin-4-yl)amino)pyridin-4-yl)amino)-1-methylcyclohexan-1-ol]: the IC50 on EGFR del19/T790M/C797S (setting [1]) was 49.7 nM; on EGFR wildtype (WT) (setting [2]), 1980 nM; on EGFR L858R/C797S (setting [3]), 814 nM; at EGFR del19/C797S (setting [4]) it was 1340 nM; at EGFR L858R/T790M/C797S (setting [5]), 16.9 nM.
As to `Cn1nc(-c2cnc(Nc3nc(-c4cnn(S(=O)(=O)C5CC5)c4)ncc3F)cc2N[C@H]2CC[C@@](C)(O)CC2)cc1C(F)(F)F` [Example 328, (1s,4s)-4-((2-((2-(1-(Cyclopropylsulfonyl)-1H-pyrazol-4-yl)-5-fluoropyrimidin-4-yl)amino)-5-(1-methyl-5-(trifluoromethyl)-1H-pyrazol-3-yl)pyridin-4-yl)amino)-1-methylcyclohexan-1-ol], the IC50 against EGFR del19/T790M/C797S (setting [6]) is 8 nM; on EGFR del19/T790M/C797S (setting [1]), 4.8 nM; on EGFR wildtype (WT) (setting [7]), more than 10000 nM; at EGFR wildtype (WT) (setting [2]), 110 nM; at EGFR L858R/C797S (setting [8]), 378 nM; on EGFR L858R/C797S (setting [3]) it was 19.5 nM. In addition, the IC50 against EGFR del19/C797S (setting [9]) is 11.5 nM; on EGFR del19/C797S (setting [4]), 9.3 nM; at EGFR L858R/T790M/C797S (setting [10]), 6.5 nM; at EGFR L858R/T790M/C797S (setting [5]), 2 nM.
As to `CC(C)(O)[C@H]1CC[C@@H](Nc2cc(Nc3ccnc(-c4cnn(S(=O)(=O)C5CC5)c4)n3)ncc2-c2ccn(C(F)F)n2)CC1` [Example 8, 2-((1s,4s)-4-((2-((2-(1-(Cyclopropylsulfonyl)-1H-pyrazol-4-yl)pyrimidin-4-yl)amino)-5-(1-(difluoromethyl)-1H-pyrazol-3-yl)pyridin-4-yl)amino)cyclohexyl)propan-2-ol], the IC50 against EGFR del19/T790M/C797S (setting [6]) was 5.5 nM; against EGFR wildtype (WT) (setting [7]), more than 10000 nM; against EGFR L858R/C797S (setting [8]) it was 21.9 nM; on EGFR del19/C797S (setting [9]), 18.8 nM; at EGFR L858R/T790M/C797S (setting [10]), 5.7 nM.
`CC1(N)CCC(Oc2cc(Nc3ccnc(-c4cnn(S(=O)(=O)C5CC5)c4)n3)ncc2-c2cnn(C(F)F)c2)CC1` (centres unmarked) [Example 74, N-(4-((4-Amino-4-methylcyclohexyl)oxy)-5-(1-(difluoromethyl)-1H-pyrazol-4-yl)pyridin-2-yl)-2-(1-(cyclopropylsulfonyl)-1H-pyrazol-4-yl)pyrimidin-4-amine]: the IC50 against EGFR del19/T790M/C797S (setting [6]) was 8.3 nM; on EGFR wildtype (WT) (setting [7]), more than 10000 nM; at EGFR L858R/C797S (setting [8]), 1380 nM; against EGFR del19/C797S (setting [9]), 103 nM; at EGFR L858R/T790M/C797S (setting [10]) it was 25.2 nM.
Take `Cc1ncc(-c2cnc(Nc3ccnc(-c4cnn(S(=O)(=O)C5CC5)c4)n3)cc2N2CCC(O)CC2)s1` [Example 89, 1-(2-((2-(1-Cyclopropylsulfonylpyrazol-4-yl)pyrimidin-4-yl)amino)-5-(2-methylthiazol-5-yl)-4-pyridyl)piperidin-4-ol]: the IC50 was 1.3 nM against EGFR del19/T790M/C797S (setting [6]); more than 10000 nM against EGFR wildtype (WT) (setting [7]); 232 nM against EGFR L858R/C797S (setting [8]); 82.5 nM against EGFR del19/C797S (setting [9]); 3.8 nM against EGFR L858R/T790M/C797S (setting [10]).
For `O=S(=O)(C1CC1)n1cc(-c2nccc(Nc3cc(NC4CC5CC(O)C4C5)c(-c4ccn(C(F)F)n4)cn3)n2)cn1` (centres unmarked) [Example 39, 6-((2-((2-(1-(Cyclopropylsulfonyl)-1H-pyrazol-4-yl)pyrimidin-4-yl)amino)-5-(1-(difluoromethyl)-1H-pyrazol-3-yl)pyridin-4-yl)amino)bicycle[2.2.1]heptan-2-ol], the IC50 was 3.6 nM against EGFR del19/T790M/C797S (setting [6]); 1.6 nM at EGFR del19/T790M/C797S (setting [1]); more than 10000 nM on EGFR wildtype (WT) (setting [7]); 143 nM on EGFR wildtype (WT) (setting [2]); 262 nM on EGFR L858R/C797S (setting [8]); 27.8 nM on EGFR L858R/C797S (setting [3]). In addition, the IC50 against EGFR del19/C797S (setting [9]) is 17.6 nM; at EGFR del19/C797S (setting [4]), 7.2 nM; on EGFR L858R/T790M/C797S (setting [10]), 7.9 nM; at EGFR L858R/T790M/C797S (setting [5]) it was 1.2 nM.
Regarding `CN(C)S(=O)(=O)n1cc(-c2nccc(Nc3cc(N[C@H]4CC[C@@](C)(O)CC4)c(-c4ccn(C(F)F)n4)cn3)n2)cn1` [Example 317, 4-(4-((5-(1-(Difluoromethyl)-1H-pyrazol-3-yl)-4-(((1s,4s)-4-hydroxy-4-methylcyclohexyl)amino)pyridin-2-yl)amino)pyrimidin-2-yl)-N,N-dimethyl-1H-pyrazole-1-sulfonamide], the IC50 is 0.3 nM at EGFR del19/T790M/C797S (setting [6]); 0.5 nM at EGFR del19/T790M/C797S (setting [1]); more than 10000 nM against EGFR wildtype (WT) (setting [7]); 12.1 nM at EGFR wildtype (WT) (setting [2]); 53.6 nM against EGFR L858R/C797S (setting [8]); 2.2 nM on EGFR L858R/C797S (setting [3]). Further, the IC50 against EGFR del19/C797S (setting [9]) turned out to be 16.8 nM; on EGFR del19/C797S (setting [4]), 5.5 nM; against EGFR L858R/T790M/C797S (setting [10]), 0.2 nM; on EGFR L858R/T790M/C797S (setting [5]), 0.1 nM.
As for `O=S(=O)(C1CC1)n1cc(-c2nccc(Nc3cc(N[C@@H]4CCC[C@H](O)C4)c(-c4csc(C(F)(F)F)n4)cn3)n2)cn1` [Example 96, (1S,3R)-3-((2-((2-(1-(Cyclopropylsulfonyl)-1H-pyrazol-4-yl)pyrimidin-4-yl)amino)-5-(2-(trifluoromethyl)thiazol-4-yl)pyridin-4-yl)amino)cyclohexan-1-ol], the IC50 at EGFR del19/T790M/C797S (setting [6]) was 3.5 nM; at EGFR del19/T790M/C797S (setting [1]), 2.7 nM; at EGFR wildtype (WT) (setting [7]), more than 10000 nM; at EGFR wildtype (WT) (setting [2]), 418 nM; at EGFR L858R/C797S (setting [8]) it was 690 nM; on EGFR L858R/C797S (setting [3]), 22.7 nM. In addition, the IC50 on EGFR del19/C797S (setting [9]) amounted to 159 nM; at EGFR del19/C797S (setting [4]), 89.1 nM; at EGFR L858R/T790M/C797S (setting [10]), 6.2 nM; on EGFR L858R/T790M/C797S (setting [5]), 2 nM.
For `C[C@]1(O)CC[C@@H](Nc2cc(Nc3ccnc(-c4cccnc4F)n3)ncc2-c2ccn(C(F)F)n2)CC1` [Example 171, (1s,4s)-4-((5-(1-(Difluoromethyl)-1H-pyrazol-3-yl)-2-((2-(2-fluoropyridin-3-yl)pyrimidin-4-yl)amino)pyridin-4-yl)amino)-1-methylcyclohexan-1-ol], the IC50 at EGFR del19/T790M/C797S (setting [1]) worked out at 2.6 nM; on EGFR wildtype (WT) (setting [2]), 523 nM; at EGFR L858R/C797S (setting [3]), 86.4 nM; on EGFR del19/C797S (setting [4]) it was 96.6 nM; on EGFR L858R/T790M/C797S (setting [5]), 2.2 nM.
